Assay results as given in patent publication US7919577B2, “Adrenocorticotropic hormone analogs and related methods” (Colorado Seminary, priority 2004, dated 2011).

Tests used:
[1] = test system: dexamethasone-suppressed male FVB/N mice; assay: in vivo Serum Corticosteroid Induction Assay (Example 1); parameters: species or system mouse; conditions: for in vivo activity, % corticosterone induction relative to mACTH(1-24): FIG. 5, method of Example 1; for Percent reduction in serum corticosteroid: relative to unmodified mACTH(1-24), 1 μg subcutaneously to dexamethasone-suppressed mice, blood one hour later
Protocol: An in vivo Serum Corticosteroid Induction Assay measures the level of corticosteroid or corticosterone in the blood stream of a subject. More specifically, the in vivo Serum Corticosteroid Induction Assay can include the following steps: first, an agent to suppress endogenous ACTH production was administered to a mouse subject, such as an intraperitoneal injection of dexamethasone; second, after waiting a suitable period of time for suppression of endogenous ACTH production (e.g., 1.5-2.0 hours), a test compound can be administered to the mouse by a suitable method, such as intraperitoneal or subcutaneous injection; and third, after waiting a suitable period of time (e.g., 1 hour) for action of the injected test compound, a blood sample can be taken from the subject and the level of serum corticosterone can be determined by a suitable method, such as a competitive radioimmunoassay using ^125I RIA kit (ICN, Costa Mesa, Calif.). Example 1 describes a murine in vivo Serum Corticosteroid Induction Assay in detail.
The corticosteroid or corticosterone secretion induced in vivo by an ACTH analog compound was compared to the level of corticosteroid secretion produced by an unmodified ACTH compound by measuring blood serum corticosteroid after administering either the ACTH or ACTH analog as test compounds. […] ACTH analog compositions with decreased function were identified by measuring corticosterone levels using standard radioimmunoassay (RIA) analysis on blood samples collected one hour after administering the mACTH(1-24) or ACTH analog compound to dexamethasone-suppressed mice. In FIG. 1, the potency of various ACTH analog peptides is expressed as percent induction of corticosterone, with mouse ACTH being 100%. […] The percent of corticosterone induction 12 of ACTH analog Compounds in Samples 2-10 are shown as a percentage of the concentration of serum corticosterone 20 measured for unmodified mACTH(1-24) in the in vivo Serum Corticosteroid Adrenal Induction Assay. The structural modifications and measured percentage reduction in serum measured for Samples 2-10 in FIG. 1 are shown in Table 3 below.
The in vivo Serum Corticosteroid Induction Assay was performed according the following method. First, two to three month-old male FVB/N mice from our colony, five per group, were injected intraperitoneally with dexamethasone (0.4 mg/0.1 ml PBS per mouse; Sigma, St. Louis, Mo.) to suppress their endogenous ACTH production. See Hajos, G T et al., “Studies of the potency of polypeptides with ACTH action by a new method based on continuous measurement of plasma corticosterone,” Steroids Lipids Res 3:225-228 (1972), Costa, J L, et al., “Mutational analysis of evolutionarily conserved ACTH residues,” Gen Comp Endocrinol, 136:12-16 (2004), and Karpac, J, et al., “Development, Maintenance, and Function of the Adrenal Gland in Early Postnatal Pro-opiomelanocortin Null Mutant Mice,” Endocrinology (2005), published online ahead of print Feb. 24, 2005, all of which are incorporated herein by reference.
Second, ninety to one hundred twenty minutes later, the dexamethasone-suppressed mice were injected subcutaneously between the shoulder blades with either unmodified mACTH(1-24) or one of several ACTH analog peptide compounds (1 μg/0.1 mL PBS/0.5% BSA), or with vehicle alone (control) (0.1 mL PBS/0.5% BSA). The following ACTH analog peptide compounds were administered to separate mice: 1: murine ACTH1-24; 2: V26F,E30K; 3: P19W,K21E,Y23R; 4: E30K,P36R; 5: ALA19-24; 6: V26F,P36R; 7: P19W, K21E; 8: P19W,K21A,delY23; 9: P19W,K21A; 10: KRRP16-19RAAW (AT814) (SEQ ID NO:20).
Third, one hour later, blood was collected within less than 1 minute from a small incision in the tail, and serum was flash-frozen and stored at −80° C. until assayed. Serum corticosterone was determined by competitive radioimmunoassay (^125I RIA kit; ICN, Costa Mesa, Calif.) according to the manufacturer's recommendations. One microliter of serum was used per assay sample. […]

[2] = test system: explanted mouse adrenal membrane (adrenal halves); assay: in vitro Serum-free Adrenal Inhibition Assay (Example 4); assay type: cell-based; conditions: for in vitro activity, % corticosterone induction relative to mACTH(1-24): FIG. 5, method of Example 4; for in vitro activity compared with in vivo activity of the same analog: FIG. 5, in vitro Example 4, in vivo Example 1
Protocol: A series of separate in vitro Serum-Free Adrenal Corticosteroid Inhibition Assay were performed to identify ACTH analogs that inhibit ACTH-induced adrenal hormone production in vitro. The concentration of corticosterone was measured according to the procedure of Example 4 in a serum-free culture medium containing explanted adrenal membrane and unmodified ACTH, AT814 ACTH analog (SEQ ID NO:20), or a combination of ACTH and AT814 at 100 ng/mL each. […] Corticosterone levels were taken at 2.0 hours after the adrenal membrane was placed in the serum free M199 medium, and each corticosterone level in Table 5 is an average of five samples.
The in vitro Serum-free Adrenal Inhibition Assay was performed according the following method. First, adrenals were removed from mice, dissected free of fat, and cut in half. See Costa, J L, et al., “Mutational analysis of evolutionarily conserved ACTH residues,” Gen Comp Endocrinol. 136:12-16 (2004); and Weber, M M, et al., “Postnatal overexpression of insulin-like growth factor II in transgenic mice is associated with adrenocortical hyperplasia and enhanced steroidogenesis,” Endocrinology 140:1537-1543 (1999), incorporated herein by reference.
Second, each adrenal half was placed into an individual well of a 4-well dish, one dish per mouse. Adrenal halves were incubated at 5% CO2, 37° C., in 0.5 ml serum-free medium (M199; Invitrogen) for 30 minutes to equilibrate.
Third, medium was removed and replaced by 0.5 ml M199 containing ACTH, AT814, or both, at 100 ng/ml each; controls had no peptides added.
Fourth, after 2 hours of incubation, the medium was removed, pooled for all four halves from each mouse, and assayed by corticosterone using standard RIA methods. corticosterone was determined by competitive radioimmunoassay (^125I RIA kit; ICN, Costa Mesa, Calif.) according to the manufacturer's recommendations. One microliter of serum was used per assay sample. Samples were run in duplicates.

serum half life ([1]; inferred from in vivo versus in vitro activity, FIG. 5) | Substance | in vivo activity, % corticosterone induction relative to mACTH(1-24) [1] | in vitro activity, % corticosterone induction relative to mACTH(1-24) [2] | in vitro activity compared with in vivo activity of the same analog [2] | Percent reduction in serum corticosteroid [1] [%] | in vivo activity, percent greater than the in vitro activity of unmodified mACTH ([1]; FIG. 5)
 | (K16A, R17A)mACTH(1-24) [ACTH analog 420] | reduced | reduced | greater than its in vivo activity |  | 
 | (P19W, K21A, delY23)mACTH (SYSMEHFRWGKPVGKKRRWVAVPNVAENESAEAFPLEF; Corticotropin; UniProt P01193 124-162, looked up, variant P19W K21A Y23*) [Sample 8] |  |  |  | 76.0 | 
 | (K15Q, R17Q)mACTH(1-24) [ACTH analog 440] | reduced | reduced | greater than its in vivo activity |  | 
increased serum half life | (PVKVYP19-24AAAAA)mACTH [Sample 5] | greater relative to both mACTH and to other ACTH analogs |  |  | 51 | about 50%
 | (P19W, K21A)mACTH (SYSMEHFRWGKPVGKKRRWVAVYPNVAENESAEAFPLEF; Corticotropin residues 1-24; UniProt P01193 124-162, looked up, variant P19W K21A) [Sample 9] | reduced | reduced | greater than its in vivo activity |  | 
 | (K16A, R18A)mACTH(1-24) [ACTH analog 430] | reduced | reduced | greater than its in vivo activity |  | 
 | (K15A, R17A)mACTH(1-24) [ACTH analog 410] | reduced | reduced | greater than its in vivo activity |  | 
